{
  "source": "patent US20190382850A1",
  "about": "“METHOD FOR IDENTIFYING MITOCHONDRIAL DNA IN EXTRACELLULAR VESICLES AND TREATMENT OF MTDNA-RELATED DISORDERS AND CANCER” (Memorial Sloan-Kettering Cancer Center, priority 2017, published 2019)",
  "key": {"MCF7 xenografts": {"system": "MCF7 xenografts", "experiment": "Tumor growth (BLI) of MCF7 mammary fat pad xenografts treated with HT", "type": "in vivo, mice", "settings": "weekly fulvestrant, FIG. 2a", "excerpt": "(Panel a) Representative tumor growth kinetics (BLI) of GFP+/Luciferase+MCF7 xenografts (n=10) treated with weekly fulvestrant once mammary fat pad tumors were established (after 3 months) which led to a period (4 months) of disease stability on HT (HTS) followed by exponential growth on HT (HTR). Representative H&E images of tumors and primary cultures from unsorted as well as FACS purified cancer cells (GFP+/Epcam+) and murine CAFs (GFP−/Epcam). Scale bar 20 μm. (Panel b) OXPHOS potential in tumor-derived cancer cells (panel a) was measured±HT (fulvestrant, 10 μM) by Seahorse. (Panel c) mtDNA/nDNA (human and murine) level as Fold change (log10scale) in cancer cells and mCAFs isolated from HTS and HTR disease (panel a). (Panel d) Percentage of metastatic lesions isolated by FACS from tumor-bearing mice (n=8/group) expressing murine mtDNA as determined by ND1 qPCR (2 ng of total DNA). Oxygen consumption rates (OCR) in murine-mtDNApos and ctrl HTR cells determined by Seahorse. (Panel e) Murine mitochondrial RNA expression (12 genes: ND1, ND2, COX2, ATP8, ATP6, COX3, ND3, ND4L, ND4, ND5, ND6, CytB) as fold change (logioscale) determined by qRT-PCR in HTR and HTS cells (panel a). […]\nAll cancer cell lines were engineered to express a GFP positive luciferase expression vector for in vitro and in vivo imaging studies. […] EV-number was determined by Nanosight. […]"}, "[1]": {"system": "ER+ tumor-derived cells and cell lines", "experiment": "OXPHOS potential (Seahorse) in HT-treated cancer cells", "type": "cell-based, human", "settings": "fulvestrant; FIG. 11c", "excerpt": "(Panel a), Representative bright field images of MCF7 po cells±CAF-EVs (3×10^9/weekly for 40 days). Bar graph of number of MS is also reported at the endpoint of the experiment (40 days). (Panel b), HT led to decreased expression of mRNA involved in protein synthesis and OXPHOS signaling with z score and -log (p-values)- as determined by Ingenuity analysis of microarray data from RNA isolated FIG. 5a (MCF7), single P values are also reported. (Panel c), OXPHOS potential determined as changes of respiration rate under mitochondrial stressors by seahorse technology (oligomycin 1 μM, rotenone 100 nM) in cancer cells isolated from FIG. 5b (MCF7, PT1). […] (Panel e), Mitochondrial Complex I/IV activity quantification as determined by nmol/min/mg of protein in luminal breast cancer cell lines from panel a. […]\nMitochondrial respiration and OXPHOS potential in cells was assessed using Seahorse technology (www.seahorsebio.com)(Qian, W. & Van Houten, B. Alterations in bioenergetics due to changes in mitochondrial DNA copy number. Methods 51, 452-457 (2010)). Oxygen consumption rate (OCR), extracellular acidification rate and glycolytic potential were determined using the Seahorse extracellular flux analyzer (XF-96, XF-24 Seahorse Bioscience). […] Furthermore OXPHOS potential was determined by measuring the area of the progress curve after the addition of glucose and rotenone/oligomycin."}},
  "data": [
    {"smiles": "C[C@]12CC[C@@H]3c4ccc(O)cc4C[C@@H](CCCCCCCCC[S+]([O-])CCCC(F)(F)C(F)(F)F)[C@H]3[C@@H]1CC[C@@H]2O", "note": "(some centres unmarked) [fulvestrant]", "values": [
      {"measurement": "growth pattern of tumors in tumor-bearing mice treated with HT", "setting": "MCF7 xenografts", "value": "no growth for 4 months (HTS) followed by exponential growth (HTR)"},
      {"measurement": "OXPHOS potential in cells treated with HT", "setting": "[1]", "value": "reduced"}
    ]}
  ]
}
